Tests used:
[1] = (§1) Pharmacokinetic parameters for Letrozole evaluated following single oral administration of Letrozole tablets; assay type: ADME, organism-based; set-up: dose 2.5 mg, route oral; conditions: human, in vivo, 2.5 mg
Homo sapiens = assay: as §1; assay type: ADME, organism-based; set-up: dose 2.5 mg, route oral; conditions: in vivo

CL/F [1]: 0.0348 L/h/kg
Cmax [1]: 0.115 µM
Tmax [1]: 1 h
dose excreted ([1]; read-out: Excretion): 3.9%
Vd (Homo sapiens): 1.87 L/kg
SMILES: N#Cc1ccc(C(c2ccc(C#N)cc2)n2cncn2)cc1 [LETROZOLE]

— ChEMBL document CHEMBL3832547, “Goodman and Gilman Ed. 12 | The Pharmaceutical Basis of Therapeutics| Table AII-I: Pharmacokinetic Data” (2011)
